# According to patent publication EP0647627A1, “1,2-Dihydro-2-oxo-3-methylsulfonylaminomethyl-pyridines as angiotensin II antagonists” (MERCK PATENT GmbH, priority 1993, dated 1995):
# Assay: Angiotensin II antagonism at the rat adrenal gland, IC50 (method of A.T. Chiu et al., J. Pharmacol. Exp. Therap. 250, 867-874 (1989))
# Type: binding, Ratten
# Conditions: an der Rattennebenniere; Iy and Iz tested as K-Salze; read-out: IC 50-Werte
# Source text: Diese Wirkungen können nach üblichen in vitro- oder in vivo-Methoden ermittelt werden, wie sie z.B. in der US-PS 4 880 804, der US-PS 5 036 048 und der WO 91/14367 beschrieben sind, ferner von A.T. Chiu et al., J. Pharmacol. Exp. Therap. 250, 867-874 (1989), und von P.C. Wong et al., ibid. 252, 719-725 (1990; in vivo, an Ratten).
# So zeigten die K-Salze von 1,2-Dihydro-1-(2'-(1H-5-tetrazolyl)-biphenylyl-4-methyl)-2-oxo-3-N-methyl- bzw. -3-N-isopropyl-N-methylsulfonylaminomethyl-6-butyl-pyridin ("Iy" bzw. "Iz") an der Rattennebenniere (Versuchsmethodik vgl. A.T.Chiu et al., l.c.) IC 50-Werte von 1,15 bzw. 1,9 nM.l-¹, wahrend das bekannte 1,2-Dihydro-1-(2'-(1H-5-tetrazolyl)biphenylyl-4-methyl)-2-oxo-3-methylsulfonylaminomethyl-6-butyl-pyridin (vgl. EP 0 530 702 A1, Beispiel 22) im gleichen Test einen IC 50-Wert von 4,0 nM · l⁻¹ aufwies.
row,SMILES,IC50 [nM]
1,"CCCCc1ccc(CNS(C)(=O)=O)c(=O)n1Cc1ccc(-c2ccccc2-c2nn[nH]n2)cc1 [EP 0 530 702 A1, Beispiel 22, 1,2-Dihydro-1-(2'-(1H-5-tetrazolyl)biphenylyl-4-methyl)-2-oxo-3-methylsulfonylaminomethyl-6-butyl-pyridin, reference compound]",4
2,"CCCCc1ccc(CN(C(C)C)S(C)(=O)=O)c(=O)n1Cc1ccc(-c2ccccc2-c2nn[nH]n2)cc1 [Iz, 1,2-Dihydro-1-(2'-(1H-5-tetrazolyl)-biphenylyl-4-methyl)-2-oxo-3-N-isopropyl-N-methylsulfonyl-aminomethyl-6-butyl-pyridin]",1.9
3,"CCCCc1ccc(CN(C)S(C)(=O)=O)c(=O)n1Cc1ccc(-c2ccccc2-c2nn[nH]n2)cc1 [Iy, 1,2-Dihydro-1-(2'-(1H-5-tetrazolyl)-biphenylyl-4-methyl)-2-oxo-3-N-methyl-N-methylsulfonyl-aminomethyl-6-butyl-pyridin]",1.15
